Assay results reported in patent US7727956B2, “Deoxonadepsipeptides” (Aicuris GmbH & Co. KG, priority 2004, dated 2010).
≈ marks a conversion by molar mass, not a printed value. Like-named read-outs stand apart in the source and are kept apart here. Starred links: 1 amine or outer side, 2 acyl side, 3 side chain; linkers in the order of their positions; H or OH if unused. Positions of bridges follow the written chain, without caps; N, C: chain ends. Non-standard residues stand in square brackets, D forms with d. Residues, ends and D or L forms follow the SMILES beside them. X3 = C[Si](C)(C)C[C@H](N)CN([C@@H](C[Si](C)(C)C)C(=O)[*:2])[*:1]; X4 = CC(C)(C)C[C@@H](C(=O)[*:2])N(C[C@@H](N)C[Si](C)(C)C)[*:1]; X1 = CC(C)C[C@@H](C(=O)[*:2])N(C[C@@H](N)C[Si](C)(C)C)[*:1]; Phe(3R-OH) = O=C([C@@H](N[*:1])[C@H](O[*:3])c1ccccc1)[*:2]; X2 = CC(C)(C)C[C@H](N)CN([C@@H](CC(C)(C)C)C(=O)[*:2])[*:1]; Asn(3S-OH) = NC(=O)[C@@H](O)[C@H](N)C(=O)O; Leu(3R-OH) = CC(C)[C@@H](O)[C@H](N)C(=O)O; aThr = C[C@H](O)[C@H](N)C(=O)O

Tests used:
[1] = tested on: Staphylococcus aureus 133; type: cell-based
Method: (§1) Determination of the Minimum Inhibitory Concentration (MIC):
(§2) The MIC is determined in the liquid dilution test in accordance with the NCCLS guidelines. Overnight cultures of Staphylococcus aureus 133, Entercococcus faecalis 27159, E. faecium 4147 and Streptococcus pneumoniae G9a are incubated with the described test substances in a 1:2 dilution series. The MIC determination is carried out with a cell count of 105 microorganisms per ml in Isosensitest medium (Difco, Irvine/USA), with the exception of S. pneumoniae, which is tested in BHI broth (Difco, Irvine/USA) with 10% bovine serum at a cell count of 106 microorganisms per ml. The cultures are incubated at 37° C. for 18-24 hours, S. pneumoniae in the presence of 10% CO2.
(§3) The lowest substance concentration in each case at which no visible bacterial growth occurs any more is defined as the MIC. The MIC values are reported in μg/ml.

[2] = tested on: Streptococcus pneumoniae G9a; type: cell-based
Method: as §1, §2, §3

E. faecalis ICB 27159 = type: cell-based, Entercococcus faecalis
Method: as §1, §2, §3

[3] = Isosensitest medium, 37° C., 18-24 hours
[4] = BHI broth with 10% bovine serum, 37° C., 18-24 hours, 10% CO2

Structure (SMILES): CC[C@H](C)[C@@H]1NC(=O)[C@@H](CCCNC(=N)N)NC(=O)[C@H](CC(C)C)NC(=O)[C@H]([C@H](O)C(C)C)NC(=O)[C@@H](NC(=O)[C@H](C[Si](C)(C)C)NC[C@@H](N)C[Si](C)(C)C)[C@@H](c2ccccc2)OC(=O)[C@H](CO)NC(=O)[C@H]([C@H](O)C(N)=O)NC(=O)CNC(=O)[C@H]([C@H](C)O)NC1=O [Example 14, N-{N-[(2R)-2-Amino-3-trimethylsilyl-prop-1-yl]-(β-trimethylsilyl)-Ala]}de(1-D-leucine-2-leucine)-lysobactin tris-hydrotrifluoro-acetate] (H-[X3][Phe(3R-OH)][Leu(3R-OH)]L[dR]I[aThr]G[Asn(3S-OH)]S; ester 2-C)
- MIC S. aureus 133 [1, 3]: 0.25 µg/mL (≈ 0.189 µM)
- MIC S. pneumoniae [2, 4]: 0.0156 µg/mL (≈ 0.0118 µM)
- MIC E. faecalis ICB 27159 (E. faecalis ICB 27159; [3]): 0.125 µg/mL (≈ 0.0945 µM)

Structure (SMILES): CC[C@H](C)[C@@H]1NC(=O)[C@@H](CCCNC(=N)N)NC(=O)[C@H](CC(C)C)NC(=O)[C@H]([C@H](O)C(C)C)NC(=O)[C@@H](NC(=O)[C@H](CC(C)C)NC[C@@H](N)C[Si](C)(C)C)[C@@H](c2ccccc2)OC(=O)[C@H](CO)NC(=O)[C@H]([C@H](O)C(N)=O)NC(=O)CNC(=O)[C@H]([C@H](C)O)NC1=O [Example 5, N-[(2R)-2-Amino-3-trimethylsilyl-prop-1-yl]de(1-D-leucine) lysobactin trishydro-trifluoroacetate] (H-[X1][Phe(3R-OH)][Leu(3R-OH)]L[dR]I[aThr]G[Asn(3S-OH)]S; ester 2-C)
- MIC S. aureus 133 [1, 3]: 0.5 µg/mL (≈ 0.387 µM)
- MIC S. pneumoniae [2, 4]: 0.063 µg/mL (≈ 0.0487 µM)
- MIC E. faecalis ICB 27159 (E. faecalis ICB 27159; [3]): 1 µg/mL (≈ 0.774 µM)

Structure (SMILES): CC[C@H](C)[C@@H]1NC(=O)[C@@H](CCCNC(=N)N)NC(=O)[C@H](CC(C)C)NC(=O)[C@H]([C@H](O)C(C)C)NC(=O)[C@@H](NC(=O)[C@H](CC(C)(C)C)NC[C@@H](N)CC(C)(C)C)[C@@H](c2ccccc2)OC(=O)[C@H](CO)NC(=O)[C@H]([C@H](O)C(N)=O)NC(=O)CNC(=O)[C@H]([C@H](C)O)NC1=O [Example 8, N-{N-[(2S)-2-Amino-4,4-dimethylpent-1-yl]-β-tBu-Ala-de(1-D-leucine-2-leucine)-lysobactintris-hydrofluoro-acetate] (H-[X2][Phe(3R-OH)][Leu(3R-OH)]L[dR]I[aThr]G[Asn(3S-OH)]S; ester 2-C)
- MIC S. aureus 133 [1]; 133: 0.5 µg/mL (≈ 0.387 µM)
- MIC S. pneumoniae ([2]; G9a): 0.063 µg/mL (≈ 0.0488 µM)
- MIC E. faecalis ICB 27159 (E. faecalis ICB 27159; ICB 27159): 1 µg/mL (≈ 0.775 µM)

Structure (SMILES): CC[C@H](C)[C@@H]1NC(=O)[C@@H](CCCNC(=N)N)NC(=O)[C@H](CC(C)C)NC(=O)[C@H]([C@H](O)C(C)C)NC(=O)[C@@H](NC(=O)[C@H](CC(C)(C)C)NC[C@@H](N)C[Si](C)(C)C)[C@@H](c2ccccc2)OC(=O)[C@H](CO)NC(=O)[C@H]([C@H](O)C(N)=O)NC(=O)CNC(=O)[C@H]([C@H](C)O)NC1=O [Example 15, N-{N-[(2R)-2-Amino-3-tri-methylsilylprop-1-yl]-(β-tBu-Ala)}-de(1-D-leucine-2-leucine) lysobactin trishydro-trifluoroacetate] (H-[X4][Phe(3R-OH)][Leu(3R-OH)]L[dR]I[aThr]G[Asn(3S-OH)]S; ester 2-C)
- MIC S. aureus 133 [1, 3]: 0.5 µg/mL (≈ 0.383 µM)
- MIC S. pneumoniae [2, 4]: 0.063 µg/mL (≈ 0.0482 µM)
- MIC E. faecalis ICB 27159 (E. faecalis ICB 27159; [3]): 1 µg/mL (≈ 0.765 µM)
